Some results are limits rather than exact numbers.

The values below come from patent US20250152585A1, “PHARMACEUTICAL COMPOUND” (Duke Street Bio Limited, priority 2022, published 2025).

One experiment deals with T1, N-terminally FLAG-tagged PARP2 (amino acids 1-583) (Homo sapiens, UniProt Q9UGN5).
T1 construct: N-terminally FLAG-tagged PARP2 (amino acids 1-583)
T1 sequence (Q9UGN5 whole entry, the tested form may be a part): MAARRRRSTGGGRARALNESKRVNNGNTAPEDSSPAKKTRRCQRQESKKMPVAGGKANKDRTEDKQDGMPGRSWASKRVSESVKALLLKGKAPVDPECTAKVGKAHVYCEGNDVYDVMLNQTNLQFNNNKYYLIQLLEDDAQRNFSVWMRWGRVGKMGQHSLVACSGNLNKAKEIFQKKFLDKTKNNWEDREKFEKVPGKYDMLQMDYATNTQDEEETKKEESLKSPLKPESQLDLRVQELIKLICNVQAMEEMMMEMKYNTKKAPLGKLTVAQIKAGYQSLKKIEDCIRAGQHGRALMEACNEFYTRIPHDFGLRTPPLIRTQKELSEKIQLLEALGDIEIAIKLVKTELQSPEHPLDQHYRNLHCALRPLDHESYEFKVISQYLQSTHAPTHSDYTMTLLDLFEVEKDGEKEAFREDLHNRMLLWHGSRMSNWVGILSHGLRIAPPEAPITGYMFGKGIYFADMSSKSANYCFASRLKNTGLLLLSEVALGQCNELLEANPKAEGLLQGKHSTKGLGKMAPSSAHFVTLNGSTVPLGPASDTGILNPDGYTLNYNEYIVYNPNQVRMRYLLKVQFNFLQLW
Kind of experiment: PARP2 probe displacement HTRF assay. It is filed as binding. The note with it: binned Kd, PARP2 probe displacement HTRF. The protocol: Data analysis was performed identical as for PARP1.
`N#Cc1ccc(N2CCC(N3CCCC(c4nc5ccccc5c(=O)[nH]4)C3)CC2)cn1` (single isomer, unassigned) [Compound 70a] displayed a Kd of 1000 to 10000 nM.
The compound `N#Cc1ccc(N2CCC(N3CCCC(c4nc5ccccc5c(=O)[nH]4)C3)CC2)cn1` (single isomer, unassigned) [Compound 70b] registered a Kd of 100 to 1000 nM.
On to `CNC(=O)c1ccc(N2CCC(N3CCCC(F)(c4nc5ccccc5c(=O)[nH]4)C3)CC2)cn1` (single isomer, unassigned) [Compound 71a], for which the Kd was > 10000 nM.
As for `CNC(=O)c1ccc(N2CCC(N3CCCC(F)(c4nc5ccccc5c(=O)[nH]4)C3)CC2)cn1` (single isomer, unassigned) [Compound 71b], the Kd is > 10000 nM.
`CCc1ccc(C2CCN(C3CCN(c4ccc(C(=O)NC)nc4)CC3)C2)[nH]c1=O` (single isomer, unassigned) [Compound 72a] registered a Kd of 1000 to 10000 nM.
Regarding `CNC(=O)c1ccc(N2CCC(N3CCCC(c4ncc(C(F)(F)F)c(=O)[nH]4)C3)CC2)cn1` (single isomer, unassigned) [Compound 73a], the Kd is > 10000 nM.
With `CNC(=O)c1ccc(N2CCC(N3CCCC(c4ncc(C(F)(F)F)c(=O)[nH]4)C3)CC2)cn1` (single isomer, unassigned) [Compound 73b], the Kd is > 10000 nM.
With `N#Cc1ccc(N2CCC(N3CCCC(c4nc5ccccc5c(=O)[nH]4)C3)CC2)nc1` (single isomer, unassigned) [Compound 74a], the Kd lay within 1000 to 10000 nM.
Regarding `N#Cc1ccc(N2CCC(N3CCCC(c4nc5ccccc5c(=O)[nH]4)C3)CC2)nc1` (single isomer, unassigned) [Compound 74b], the Kd was in the range of 1000 to 10000 nM.
With `CNC(=O)c1ccc(N2CCC(N3CCC(c4nc5cccc(Cl)c5c(=O)[nH]4)C3)CC2)cn1` (single isomer, unassigned) [Compound 85b], the Kd fell in the range of 10 to 100 nM.
Compound `CNC(=O)c1ccc(N2CCC(N3CCC(c4nc5cccc(C(F)(F)F)c5c(=O)[nH]4)C3)CC2)cn1` (single isomer, unassigned) [Compound 86a] showed a Kd of 100 to 1000 nM.
The same measure, in the same setting: the result for `CNC(=O)c1ccc(N2CCC(N3CCC(c4cc5ccccc5c(=O)[nH]4)C3)CC2)cn1` (single isomer, unassigned) [Compound 91a] reads 100 to 1000 nM; that for `CNC(=O)c1ccc(N2CCC(N3CCC(c4cc5ccccc5c(=O)[nH]4)C3)CC2)cn1` (single isomer, unassigned) [Compound 91b], 100 to 1000 nM.
Consider `CNC(=O)c1ccc(N2CCC(N3CCC(c4nc5cc(F)ccc5c(=O)[nH]4)C3)CC2)cn1` (single isomer, unassigned) [Compound 92a], for which the Kd was > 10000 nM.

The next experiment deals with T2, full length N-terminally FLAG-tagged PARP1 (Homo sapiens, UniProt P09874). As to the kind of experiment: PARP1 biochemical DELFIA assay (auto-PARylation). Also noted: recombinant full length human N-terminally FLAG-tagged PARP1. The note with it: binned IC50, PARP1 biochemical DELFIA assay.
T2 sequence (P09874 whole entry): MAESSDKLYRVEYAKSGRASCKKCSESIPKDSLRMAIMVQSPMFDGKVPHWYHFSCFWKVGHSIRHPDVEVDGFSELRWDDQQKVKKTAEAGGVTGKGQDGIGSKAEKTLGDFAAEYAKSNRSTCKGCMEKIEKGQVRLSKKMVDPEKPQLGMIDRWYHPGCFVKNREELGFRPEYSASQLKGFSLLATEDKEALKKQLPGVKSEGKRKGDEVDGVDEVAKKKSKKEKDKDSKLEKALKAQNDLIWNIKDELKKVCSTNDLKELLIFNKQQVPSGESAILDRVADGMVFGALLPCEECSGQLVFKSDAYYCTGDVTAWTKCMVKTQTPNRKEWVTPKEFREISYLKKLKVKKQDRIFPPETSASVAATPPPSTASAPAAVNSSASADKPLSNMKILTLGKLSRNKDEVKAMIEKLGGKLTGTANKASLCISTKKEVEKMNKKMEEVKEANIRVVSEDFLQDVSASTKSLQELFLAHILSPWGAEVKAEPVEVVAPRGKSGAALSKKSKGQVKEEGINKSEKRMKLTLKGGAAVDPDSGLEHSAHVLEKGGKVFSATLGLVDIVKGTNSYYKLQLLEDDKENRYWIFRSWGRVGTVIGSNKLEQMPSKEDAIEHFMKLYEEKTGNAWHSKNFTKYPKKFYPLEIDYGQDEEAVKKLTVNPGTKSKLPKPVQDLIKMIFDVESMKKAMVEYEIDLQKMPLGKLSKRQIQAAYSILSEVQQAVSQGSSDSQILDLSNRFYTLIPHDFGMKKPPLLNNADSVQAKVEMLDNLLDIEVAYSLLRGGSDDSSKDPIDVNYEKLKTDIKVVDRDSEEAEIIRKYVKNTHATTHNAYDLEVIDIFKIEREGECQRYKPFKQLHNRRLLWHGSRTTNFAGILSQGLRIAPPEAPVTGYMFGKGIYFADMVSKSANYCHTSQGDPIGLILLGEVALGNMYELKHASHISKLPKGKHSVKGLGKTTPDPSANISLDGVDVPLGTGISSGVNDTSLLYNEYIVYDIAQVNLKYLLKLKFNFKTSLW
One may read the IC50 as the concentration at which inhibition is half-maximal. Turning to `N#Cc1ccc(N2CCC(N3CCCC(c4nc5ccccc5c(=O)[nH]4)C3)CC2)cn1` (single isomer, unassigned) [Compound 70a], the IC50 was in the range of 10 to 100 nM.
On the same count and under the same terms, the value for `N#Cc1ccc(N2CCC(N3CCCC(c4nc5ccccc5c(=O)[nH]4)C3)CC2)cn1` (single isomer, unassigned) [Compound 70b] was 10 to 100 nM; that for `CNC(=O)c1ccc(N2CCC(N3CCCC(F)(c4nc5ccccc5c(=O)[nH]4)C3)CC2)cn1` (single isomer, unassigned) [Compound 71a] was 1000 to 10000 nM.
Turning to `CNC(=O)c1ccc(N2CCC(N3CCCC(F)(c4nc5ccccc5c(=O)[nH]4)C3)CC2)cn1` (single isomer, unassigned) [Compound 71b], the IC50 is 10 to 100 nM.
With `CCc1ccc(C2CCN(C3CCN(c4ccc(C(=O)NC)nc4)CC3)C2)[nH]c1=O` (single isomer, unassigned) [Compound 72a], the IC50 is 10 to 100 nM.
`CNC(=O)c1ccc(N2CCC(N3CCCC(c4ncc(C(F)(F)F)c(=O)[nH]4)C3)CC2)cn1` (single isomer, unassigned) [Compound 73a]: the IC50 is 100 to 1000 nM.
Turning to `CNC(=O)c1ccc(N2CCC(N3CCCC(c4ncc(C(F)(F)F)c(=O)[nH]4)C3)CC2)cn1` (single isomer, unassigned) [Compound 73b], the IC50 fell in the range of 10 to 100 nM.
`N#Cc1ccc(N2CCC(N3CCCC(c4nc5ccccc5c(=O)[nH]4)C3)CC2)nc1` (single isomer, unassigned) [Compound 74a]: the IC50 lay within 100 to 1000 nM.
As for `N#Cc1ccc(N2CCC(N3CCCC(c4nc5ccccc5c(=O)[nH]4)C3)CC2)nc1` (single isomer, unassigned) [Compound 74b], the IC50 lay within 10 to 100 nM.
`CNC(=O)c1ccc(N2CCC(N3CCC(c4nc5cccc(Cl)c5c(=O)[nH]4)C3)CC2)cn1` (single isomer, unassigned) [Compound 85b]: the IC50 was < 10 nM.
Still for that read-out and setting: the result for `CNC(=O)c1ccc(N2CCC(N3CCC(c4nc5cccc(C(F)(F)F)c5c(=O)[nH]4)C3)CC2)cn1` (single isomer, unassigned) [Compound 86a] reads 10 to 100 nM; that for `CNC(=O)c1ccc(N2CCC(N3CCC(c4cc5ccccc5c(=O)[nH]4)C3)CC2)cn1` (single isomer, unassigned) [Compound 91a], < 10 nM.
`CNC(=O)c1ccc(N2CCC(N3CCC(c4cc5ccccc5c(=O)[nH]4)C3)CC2)cn1` (single isomer, unassigned) [Compound 91b]: the IC50 was < 10 nM.
Regarding `CNC(=O)c1ccc(N2CCC(N3CCC(c4nc5cc(F)ccc5c(=O)[nH]4)C3)CC2)cn1` (single isomer, unassigned) [Compound 92a], the IC50 is 100 to 1000 nM.

For the next experiment, the target named is T2, full length N-terminally FLAG-tagged PARP1. Kind of experiment: PARP1 probe displacement HTRF assay. The note with it: PARP1 over PARP2, ratio Kd (PARP2)/Kd (PARP1), probe displacement HTRF. On the technique in general: TR-FRET usually uses a lanthanide donor and a delayed reading to cut background.
`N#Cc1ccc(N2CCC(N3CCCC(c4nc5ccccc5c(=O)[nH]4)C3)CC2)cn1` (single isomer, unassigned) [Compound 70a]: the Selectivity result was “+ (+ indicates a value of 10 to less than 50)”.
With `N#Cc1ccc(N2CCC(N3CCCC(c4nc5ccccc5c(=O)[nH]4)C3)CC2)cn1` (single isomer, unassigned) [Compound 70b], the Selectivity result was “− (− indicates a value of less than 10)”.
Turning to `CNC(=O)c1ccc(N2CCC(N3CCCC(F)(c4nc5ccccc5c(=O)[nH]4)C3)CC2)cn1` (single isomer, unassigned) [Compound 71a], the Selectivity entry is “− (− indicates a value of less than 10)”.
As for `CNC(=O)c1ccc(N2CCC(N3CCCC(F)(c4nc5ccccc5c(=O)[nH]4)C3)CC2)cn1` (single isomer, unassigned) [Compound 71b], the Selectivity result is on record as “+++ (+++ indicate a value of at least 100)”.
As for `CCc1ccc(C2CCN(C3CCN(c4ccc(C(=O)NC)nc4)CC3)C2)[nH]c1=O` (single isomer, unassigned) [Compound 72a], the Selectivity entry is on record as “+++ (+++ indicate a value of at least 100)”.
For the compound `CNC(=O)c1ccc(N2CCC(N3CCCC(c4ncc(C(F)(F)F)c(=O)[nH]4)C3)CC2)cn1` (single isomer, unassigned) [Compound 73a], the Selectivity result is on record as “− (− indicates a value of less than 10)”.
As for `CNC(=O)c1ccc(N2CCC(N3CCCC(c4ncc(C(F)(F)F)c(=O)[nH]4)C3)CC2)cn1` (single isomer, unassigned) [Compound 73b], the Selectivity result is reported as “++ (++ indicates a value of 50 to less than 100)”.
For the compound `N#Cc1ccc(N2CCC(N3CCCC(c4nc5ccccc5c(=O)[nH]4)C3)CC2)nc1` (single isomer, unassigned) [Compound 74a], the Selectivity result is “+ (+ indicates a value of 10 to less than 50)”.
On the same count and under the same terms, the result for `N#Cc1ccc(N2CCC(N3CCCC(c4nc5ccccc5c(=O)[nH]4)C3)CC2)nc1` (single isomer, unassigned) [Compound 74b] reads “++ (++ indicates a value of 50 to less than 100)”; that for `CNC(=O)c1ccc(N2CCC(N3CCC(c4nc5cccc(Cl)c5c(=O)[nH]4)C3)CC2)cn1` (single isomer, unassigned) [Compound 85b], “++ (++ indicates a value of 50 to less than 100)”.
As to `CNC(=O)c1ccc(N2CCC(N3CCC(c4nc5cccc(C(F)(F)F)c5c(=O)[nH]4)C3)CC2)cn1` (single isomer, unassigned) [Compound 86a], the Selectivity entry is “+ (+ indicates a value of 10 to less than 50)”.
Same read-out and setting: the value for `CNC(=O)c1ccc(N2CCC(N3CCC(c4cc5ccccc5c(=O)[nH]4)C3)CC2)cn1` (single isomer, unassigned) [Compound 91a] was “+++ (+++ indicate a value of at least 100)”.
Take `CNC(=O)c1ccc(N2CCC(N3CCC(c4cc5ccccc5c(=O)[nH]4)C3)CC2)cn1` (single isomer, unassigned) [Compound 91b]: the Selectivity result is “+++ (+++ indicate a value of at least 100)”.
Same read-out and setting: the value for `CNC(=O)c1ccc(N2CCC(N3CCC(c4nc5cc(F)ccc5c(=O)[nH]4)C3)CC2)cn1` (single isomer, unassigned) [Compound 92a] was “+ (+ indicates a value of 10 to less than 50)”.

The same experiment, now with this note: read-out: PARP1 HTRF; binned Kd, PARP1 probe displacement HTRF.
For the compound `N#Cc1ccc(N2CCC(N3CCCC(c4nc5ccccc5c(=O)[nH]4)C3)CC2)cn1` (single isomer, unassigned) [Compound 70a], the Kd was 100 to 1000 nM.
With `N#Cc1ccc(N2CCC(N3CCCC(c4nc5ccccc5c(=O)[nH]4)C3)CC2)cn1` (single isomer, unassigned) [Compound 70b], the Kd fell in the range of 100 to 1000 nM.
Regarding `CNC(=O)c1ccc(N2CCC(N3CCCC(F)(c4nc5ccccc5c(=O)[nH]4)C3)CC2)cn1` (single isomer, unassigned) [Compound 71a], the Kd lay in the range of 1000 to 10000 nM.
Still for that read-out and setting: the result for `CNC(=O)c1ccc(N2CCC(N3CCCC(F)(c4nc5ccccc5c(=O)[nH]4)C3)CC2)cn1` (single isomer, unassigned) [Compound 71b] reads 10 to 100 nM; that for `CCc1ccc(C2CCN(C3CCN(c4ccc(C(=O)NC)nc4)CC3)C2)[nH]c1=O` (single isomer, unassigned) [Compound 72a], 10 to 100 nM.
With `CNC(=O)c1ccc(N2CCC(N3CCCC(c4ncc(C(F)(F)F)c(=O)[nH]4)C3)CC2)cn1` (single isomer, unassigned) [Compound 73a], the Kd lay within 100 to 1000 nM.
As for `CNC(=O)c1ccc(N2CCC(N3CCCC(c4ncc(C(F)(F)F)c(=O)[nH]4)C3)CC2)cn1` (single isomer, unassigned) [Compound 73b], the Kd lay in the range of 10 to 100 nM.
In the case of `N#Cc1ccc(N2CCC(N3CCCC(c4nc5ccccc5c(=O)[nH]4)C3)CC2)nc1` (single isomer, unassigned) [Compound 74a], the Kd lay in the range of 100 to 1000 nM.
Same read-out and setting: the value for `N#Cc1ccc(N2CCC(N3CCCC(c4nc5ccccc5c(=O)[nH]4)C3)CC2)nc1` (single isomer, unassigned) [Compound 74b] was 10 to 100 nM; that for `CNC(=O)c1ccc(N2CCC(N3CCC(c4nc5cccc(Cl)c5c(=O)[nH]4)C3)CC2)cn1` (single isomer, unassigned) [Compound 85b] was < 10 nM; that for `CNC(=O)c1ccc(N2CCC(N3CCC(c4nc5cccc(C(F)(F)F)c5c(=O)[nH]4)C3)CC2)cn1` (single isomer, unassigned) [Compound 86a] was 10 to 100 nM.
For the compound `CNC(=O)c1ccc(N2CCC(N3CCC(c4cc5ccccc5c(=O)[nH]4)C3)CC2)cn1` (single isomer, unassigned) [Compound 91a], the Kd was < 10 nM.
For the compound `CNC(=O)c1ccc(N2CCC(N3CCC(c4cc5ccccc5c(=O)[nH]4)C3)CC2)cn1` (single isomer, unassigned) [Compound 91b], the Kd is < 10 nM.
On the same count and under the same terms, the result for `CNC(=O)c1ccc(N2CCC(N3CCC(c4nc5cc(F)ccc5c(=O)[nH]4)C3)CC2)cn1` (single isomer, unassigned) [Compound 92a] reads 100 to 1000 nM.
